Test results from PubChem BioAssay AID1845204 (Molecular Pharmacology Branch, DTP, NCI, 2023).

System: HSSY-II tumor spheroid viability
Experiment: Anticancer human tumor HSSY-II cell line growth inhibition;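 further: spheroids exposed to compounds for seven days before reading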;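 on viability, T/C: percent of DMSO vehicle control viability so 100% = untreated level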
Details: spheroids with HUVEC and MSC; for IC50: curve of first compound; for viability, T/C: stronger effect = lower value
Method in brief: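 Complex spheroids of malignant cells with endothelial cells and mesenchymal stem cells; agents alone or combined, from near clinical Cmax (or 10 microM if unknown) down in half-log steps, 0.25% DMSO final.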

Structure (SMILES): O=C(c1cc(Cc2n[nH]c(=O)c3ccccc23)ccc1F)N1CCN(C(=O)C2CC2)CC1 + Cn1nnc2c(C(N)=O)ncn2c1=O
- IC50 (second compound 1 µM): 6.1 µM
- IC50 (second compound 3.16 µM): 3.28 µM
- IC50 (second compound 10 µM): 2.48 µM
- IC50 (second compound 31.6 µM): 0.751 µM
- IC50 (second compound 100 µM): < 0.0949 µM
- viability, T/C (second compound 1 µM, first compound 0.0949 µM): 98%
- viability, T/C (second compound 1 µM, first compound 0.3 µM): 93.6%
- viability, T/C (second compound 1 µM, first compound 0.949 µM): 84.2%
- viability, T/C (second compound 1 µM, first compound 3 µM): 63.6%
- viability, T/C (second compound 1 µM, first compound 9.49 µM): 23.9%
- viability, T/C (second compound 1 µM, first compound 30 µM): 59.1%
- viability, T/C (second compound 3.16 µM, first compound 0.0949 µM): 94.9%
- viability, T/C (second compound 3.16 µM, first compound 0.3 µM): 92.5%
- viability, T/C (second compound 3.16 µM, first compound 0.949 µM): 81.9%
- viability, T/C (second compound 3.16 µM, first compound 3 µM): 54.8%
- viability, T/C (second compound 3.16 µM, first compound 9.49 µM): 20.1%
- viability, T/C (second compound 3.16 µM, first compound 30 µM): 43.3%
- viability, T/C (second compound 10 µM, first compound 0.0949 µM): 99.6%
- viability, T/C (second compound 10 µM, first compound 0.3 µM): 93.3%
- viability, T/C (second compound 10 µM, first compound 0.949 µM): 81.3%
- viability, T/C (second compound 10 µM, first compound 3 µM): 46.5%
- viability, T/C (second compound 10 µM, first compound 9.49 µM): 12%
- viability, T/C (second compound 10 µM, first compound 30 µM): 56.4%
- viability, T/C (second compound 31.6 µM, first compound 0.0949 µM): 95.5%
- viability, T/C (second compound 31.6 µM, first compound 0.3 µM): 78.5%
- viability, T/C (second compound 31.6 µM, first compound 0.949 µM): 44%
- viability, T/C (second compound 31.6 µM, first compound 3 µM): 14%
- viability, T/C (second compound 31.6 µM, first compound 9.49 µM): 11.3%
- viability, T/C (second compound 31.6 µM, first compound 30 µM): 9.62%
- viability, T/C (second compound 100 µM, first compound 0.0949 µM): 43.4%
- viability, T/C (second compound 100 µM, first compound 0.3 µM): 25.2%
- viability, T/C (second compound 100 µM, first compound 0.949 µM): 10.7%
- viability, T/C (second compound 100 µM, first compound 3 µM): 10.1%
- viability, T/C (second compound 100 µM, first compound 9.49 µM): 8.27%
- viability, T/C (second compound 100 µM, first compound 30 µM): 9.08%
